{
  "source": "patent US10245271B2",
  "about": "“Treatment of impaired cognitive flexibility with TrkB receptor antagonists” (Florida State University Research Foundation, Inc., priority 2015, dated 2019)",
  "key": {"[1]": {"tested_on": "prenatally cocaine-exposed mice", "test": "Olfactory (odor) reversal learning, go no-go olfactometer paradigm", "assay_type": "in vivo, mouse (Swiss Webster)", "description": "Swiss Webster mice were housed in a temperature and humidity controlled environment on a 12 hr light/dark cycle with food and water available ad libitum were bred to obtain timed pregnancies.\nSingly housed dams received twice daily (7 AM and 7 PM) subcutaneous injections of cocaine (20 mg/kg/injection: total daily dose=40 mg/kg/day) or saline (same volume and time of administration as the cocaine injection) from the 8th day of pregnancy until the day of birth. The period of cocaine exposure corresponds to mid-first trimester of human pregnancies.\n(§1) Olfactometry: Reversal learning was assayed in an automated olfactometer based on odor learning and detection using water as reward (41, 42). Briefly, odorants were presented via an 8-channel liquid dilution computerized olfactometer (Knosys LD8-1, Tampa, Fla.) so that odorant threshold determinations were automated and stimulus concentration, timing of onset and offset, and stimulus control of behavior could be controlled reliably. We modified our Knosys system to provide additional mechanical dampening of the solenoid pinch valves to permit incorporation of materials for mounting the machine in-line with sterilization of the olfactometer.\nThe Knosys olfactometer employs operant conditioning in the form of both positive and negative reinforcements. Positive reinforcement is used when pairing an odorant with water reward (S+). A 10-second time out or negative reinforcement occurs as a result of a mouse responding to a negative cue or diluent (S−). Mice were therefore trained in a classical “go no-go” operant conditioning paradigm to recognize an odorant.\nOperant training: Mice were water-deprived to 85% of their baseline bodyweight to motivate them for a water reward. Operant training was performed using a step-wise battery of tasks that began with reward reinforcement for learning to lick a water delivery tube and snout insertion into the odor sampling port. Mice advanced to the next stage after 30 reinforcements. Next, mice were reinforced for lick decisions paired with a positively entrained odor (S+). They were required to nose poke for an extended period of time to sample an odor prior to receiving water reinforcement.\nDuring the go no-go operant training mice inserted their snout into the odor sampling port to initiate a trial and waited until the odor stimulus was presented. […] The mice were rewarded for lick decisions paired with a positively entrained odor (S+) and also for correct rejections paired with a negatively entrained odor (S−). This establishes the “go no-go” reward criteria. The percentage of correct responses per trial was determined by the formula: % correct responses=[(HITs+Correct Rejections)/20]×100, where a HIT is defined as a criterion response in the presence of S+, and a Correct Rejection (CR) is a failure to make a criterion response in the presence of […] 20 represents the number of trials per block.\nOdor Reversal Learning: Once mice achieved criteria performance on the two-odor discrimination testing for a week, mice underwent an odor-reversal learning paradigm. Here mice were introduced to the switch (reversal) of the S+ for the S− stimulus where the previously rewarded odor stimulus now lacked the water reward and the previously unrewarded odor stimulus was now paired with the water reward.\nThe scent stimuli used were 5% Ethyl Acetate (EA) and 1% Acetophenone (AP).\nUpon successful completion of the training phase and odor discrimination phase a subset of mice were randomly assigned to the ANA-12 injection group. ANA-12 (Sigma Aldrich, St. Louis, Mo.; SML0209) was administered twice daily [0.5 mg/kg; 1.0 mg/kg/day intraperitoneal (i.p.)] for 13 consecutive days. ANA-12 was dissolved in 100% DMSO (stock), and diluted further such that the final concentration of DMSO administered to the mice was 1%. On days 8-10 of the injection period, the mice were water deprived (to 85% of pre-deprivation weight). […]"}, "[2]": {"tested_on": "prenatally cocaine-exposed mice", "test": "Odor versus odor discrimination (two-odor discrimination testing)", "assay_type": "in vivo, mouse (Swiss Webster)", "details": "ANA-12 i.p. twice a day, 1 mg/kg/day; data not shown", "description": "as §1\nDuring the go no-go operant training mice inserted their snout into the odor sampling port to initiate a trial and waited until the odor stimulus was presented. […] The mice were rewarded for lick decisions paired with a positively entrained odor (S+) and also for correct rejections paired with a negatively entrained odor (S−). This establishes the “go no-go” reward criteria. The percentage of correct responses per trial was determined by the formula: % correct responses=[(HITs+Correct Rejections)/20]×100, where a HIT is defined as a criterion response in the presence of S+, and a Correct Rejection (CR) is a failure to make a criterion response in the presence of […] 20 represents the number of trials per block. […]"}, "[3]": {"biological_target": "TrkA (Homo sapiens, UniProt P04629)", "sequence (P04629 33-796, species assumed)": "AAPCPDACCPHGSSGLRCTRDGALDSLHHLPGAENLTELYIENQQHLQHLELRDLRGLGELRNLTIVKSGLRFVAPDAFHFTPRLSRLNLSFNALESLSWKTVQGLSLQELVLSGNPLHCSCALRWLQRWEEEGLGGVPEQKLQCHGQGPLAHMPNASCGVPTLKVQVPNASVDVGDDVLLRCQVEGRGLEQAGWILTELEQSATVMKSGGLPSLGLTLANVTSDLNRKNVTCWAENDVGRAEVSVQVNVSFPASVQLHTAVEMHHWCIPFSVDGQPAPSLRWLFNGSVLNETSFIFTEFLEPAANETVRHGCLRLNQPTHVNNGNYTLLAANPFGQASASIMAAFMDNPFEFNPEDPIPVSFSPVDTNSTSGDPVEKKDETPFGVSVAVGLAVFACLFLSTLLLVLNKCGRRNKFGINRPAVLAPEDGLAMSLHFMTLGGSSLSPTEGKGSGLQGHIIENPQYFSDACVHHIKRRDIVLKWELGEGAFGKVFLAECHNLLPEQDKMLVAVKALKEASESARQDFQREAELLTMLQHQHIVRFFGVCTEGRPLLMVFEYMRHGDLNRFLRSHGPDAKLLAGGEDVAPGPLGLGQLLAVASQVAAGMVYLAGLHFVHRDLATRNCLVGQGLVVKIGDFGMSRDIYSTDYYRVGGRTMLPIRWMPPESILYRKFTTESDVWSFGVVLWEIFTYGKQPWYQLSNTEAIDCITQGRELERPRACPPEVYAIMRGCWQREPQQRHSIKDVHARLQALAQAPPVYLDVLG", "details": "cited from earlier work"}, "[4]": {"biological_target": "TrkC (Homo sapiens, UniProt Q16288)", "sequence (Q16288 32-839, species assumed)": "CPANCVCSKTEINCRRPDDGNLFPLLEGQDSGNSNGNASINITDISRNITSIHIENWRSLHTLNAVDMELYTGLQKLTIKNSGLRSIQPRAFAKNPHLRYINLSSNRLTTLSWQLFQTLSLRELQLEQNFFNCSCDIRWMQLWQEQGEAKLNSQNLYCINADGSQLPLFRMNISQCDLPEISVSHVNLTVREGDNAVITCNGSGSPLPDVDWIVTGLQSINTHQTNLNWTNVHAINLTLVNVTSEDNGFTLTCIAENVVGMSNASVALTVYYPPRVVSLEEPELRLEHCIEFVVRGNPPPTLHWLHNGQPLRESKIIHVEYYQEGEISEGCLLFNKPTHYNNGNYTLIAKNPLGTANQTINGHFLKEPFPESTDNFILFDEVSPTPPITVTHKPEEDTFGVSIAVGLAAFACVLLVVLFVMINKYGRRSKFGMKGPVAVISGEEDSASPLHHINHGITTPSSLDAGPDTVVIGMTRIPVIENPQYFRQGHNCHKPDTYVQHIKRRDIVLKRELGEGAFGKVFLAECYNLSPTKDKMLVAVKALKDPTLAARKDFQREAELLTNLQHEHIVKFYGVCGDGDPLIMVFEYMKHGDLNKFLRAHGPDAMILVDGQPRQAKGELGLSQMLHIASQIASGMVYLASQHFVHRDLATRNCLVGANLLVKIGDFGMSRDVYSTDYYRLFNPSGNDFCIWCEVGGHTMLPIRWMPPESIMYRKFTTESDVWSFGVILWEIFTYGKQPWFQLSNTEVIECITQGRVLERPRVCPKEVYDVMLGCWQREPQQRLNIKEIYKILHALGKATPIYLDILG", "details": "cited from earlier work"}, "[5]": {"tested_on": "mice", "details": "mice dosed with ANA-12; Cazorla et al., J. Clin. Invest. 121(5), 1846-57 (2011); cited from earlier work"}},
  "note": "Entries after “also recorded” stand apart in the source; their conditions may differ.",
  "data": [
    {"smiles": "O=C(Nc1ccccc1C(=O)NC1CCCCNC1=O)c1cc2ccccc2s1", "note": "(stereo not shown) [ANA-12, N-[2-[[(Hexahydro-2-oxo-1H-azepin-3-yl)amino]carbonyl]phenyl]-benzo[b]thiophene-2-carboxamide]", "values": [
      {"measurement": "performance in the reversal paradigm", "setting": "[1]; ANA-12 treated prenatally cocaine-exposed mice vs prenatally cocaine-exposed mice, i.p. 1 mg/kg/day, 13 days, 1 mg/kg/day", "value": "performed better; also recorded: significant improvement in performance"},
      {"measurement": "cognitive flexibility of treated subjects", "setting": "[1]; ANA-12 treatment, summary statement", "value": "a statistically significant number of subjects tested showed improved cognitive flexibility"},
      {"measurement": "Number of trials to reach criteria (≥80%), Mean±SEM", "setting": "[1]; Cocaine+ANA12 group, i.p. 1 mg/kg/day, 13 days", "value": "255.0±9.6"},
      {"measurement": "difference in number of trials to reach criteria vs saline-exposed mice", "setting": "[1]; Mann-Whitney's U test, saline vs cocaine+ANA-12, p>0.05", "value": "no significant difference"},
      {"measurement": "time course of reversal learning vs saline-exposed mice", "setting": "[1]; Student's t-test, p>0.05", "value": "not significantly different"},
      {"measurement": "median number of trials needed to reach criteria following reversal of the odors", "setting": "[1]; cocaine+ANA-12 group", "value": 290},
      {"measurement": "mean rank, Mann-Whitney's U test, number of trials to reach criteria", "setting": "[1]; cocaine+ANA-12 group vs saline (U=3.5, p>0.05)", "value": 22.5},
      {"measurement": "% correct responses in reversal learning, post-hoc Bonferroni comparison cocaine versus cocaine+ANA-12", "setting": "[1]; day 2 (blocks 11-20), t=3.557, df=124, p<0.01, FIG. 2A", "value": "significant difference"},
      {"measurement": "percentage of mice that reached criteria (at least 80% correct) over the two days", "setting": "[1]; prenatally cocaine-exposed mice injected with ANA-12, FIG. 2B", "value": 57, "unit": "%"},
      {"measurement": "correct hits in odor versus odor discrimination", "setting": "[2]", "value": "> 80", "unit": "%"},
      {"measurement": "effect on TrkA functions", "setting": "[3]", "value": "without substantially altering"},
      {"measurement": "effect on TrkC functions", "setting": "[4]", "value": "without substantially altering"},
      {"measurement": "anxiety- and depression-related behaviors", "setting": "[5]", "value": "reduced anxiety- and depression-related behaviors"}
    ]}
  ]
}
